Results from article PMC7170498, “Targeted alpha therapy using astatine (^211At)-labeled phenylalanine: A preclinical study in glioma bearing mice” (Oncotarget, 2020).

Key:
C6 glioma cells = test: In vitro cellular uptake and inhibition assay of ^211At-PA; type: cell-based; settings: Rattus norvegicus, 20 mM BCH added 5 min before para-^211At-PA, compared to baseline, read-out: inhibition of ^211At-PA uptake by addition of BCH
Experimental: (§1) The C6 rat glioma cell line was provided by RIKEN BRC (Tsukuba, Japan) and cultured in F-12K medium (Gibco, Grand Island, NY, USA) containing 10% fetal bovine serum (FBS; Sigma-Aldrich). The U-87 MG human glioblastoma cell line was purchased from American Type Culture Collection (Manassas, VA, USA) and cultured in Modified Eagle’s medium (MEM; Sigma-Aldrich, St. Louis, MO, USA) containing 1% Non Essential Amino Acids (NEAA) + 1 mM Sodium Pyruvate (NaP) and 10% FBS. The GL261 murine glioma cell line was provided by the In Vivo Cellular and Molecular Imaging Lab at Vrije Universiteit, Brussels and cultured in high-glucose Dulbecco’s MEM (DMEM; Wako Pure Chemical, Osaka, Japan) containing 10% FBS. All cells were maintained at 37°C in a humidified incubator containing 5% CO2 and were washed with phosphate-buffered saline (PBS) and harvested with trypsin as necessary. LAT1 expression of these cells were confirmed in previous studies.
(§2) Initially, the cells were seeded onto a 24-well plate (density: 1 × 10^5/well) and cultured for 2 days. […] Counts per minute (CPM) of the samples were measured by gamma counter. The protein concentrations were measured using the BCA protein assay kit (FUJIFILM Wako Pure Chemical) and a plate reader (Multiskan FC, ThermoFisher Scientific, USA). […]

U-87MG cells = test: as above; type: cell-based; settings: Homo sapiens, 20 mM BCH added 5 min before para-^211At-PA, compared to baseline, read-out: inhibition of ^211At-PA uptake by addition of BCH
Experimental: as §1, §2

GL261 cells = test: as above; type: cell-based, murine; settings: Mus musculus, 20 mM BCH added 5 min before para-^211At-PA, compared to baseline, read-out: inhibition of ^211At-PA uptake by addition of BCH
Experimental: as §1, §2

thyroid gland = settings: ^211At-astatide deastatinated from ^211At-PA; cited from earlier work
[1] = Stability of the radiolabeled products in vials; type: physicochemical; settings: for 24 hr
Experimental: Ascorbic acid, para-borono-L-phenylalanine (para-BPA), meta-borono-D, L-phenylalanine (meta-BPA), N-bromosuccinimide (NBS), and an injectable solution of 7% sodium hydrogen carbonate (7% NaHCO3) were purchased from Nacalai Tesque (Kyoto, Japan). For the experiments, 1 mg of para-BPA (or meta-BPA) was dissolved in 0.1 mL of 7% NaHCO3. Next, 0.1 mL of the 1% (w/v) para-BPA (or meta-BPA) solution and an aliquot of ^211At aqueous solution (10–20 MBq) were poured into a glass vial, stirred, and mixed with 30 μL of an aqueous solution of 0.4% (w/v) NBS for 30 min at room temperature. Finally, 30 μL of an aqueous solution of 3% (w/v) ascorbic acid was added to the mixture to stop the oxidation reaction, and the mixture was purified using solid-phase extraction. The purified para-^211At-PA or meta-^211At-PA was then analyzed using a high-performance liquid chromatography system (Shimazdu, Kyoto) equipped with a reverse-phase Cosmosil column (5C18 MS2, 150 mm × 4.6 mm; Nacalai Tesque). The products were eluted using a gradient solvent system (0–100% acetonitrile in water) for 20 min and then measured using a gamma-ray detector (GABI star, Elysia-raytest, Germany) and a UV detector at 254 nm.

[2] = Biodistribution and iodine blocking effect in normal ICR mice; type: in vivo, mouse; settings: for residence time in major organs (meta- versus para-): intravenous
Experimental: For the biodistribution study, para- or meta-^211At-PA (0.53 ± 0.04 MBq) was injected into normal male ICR mice (n = 18, 9 weeks old, body weight = 37.7 ± 1.3 g). The mice were sacrificed by euthanasia at 1, 3, and 24 hr post-injection. For the iodine blocking study, normal male ICR mice (n = 6, 9 weeks old, body weight = 37.9 ± 0.9 g) were fed with 2-week iodine-restricted diet. […] The mice were euthanized 3 hr post-administration of para-^211At-PA (0.5 MBq) and dissected.
The major organs (brain, thyroid gland, salivary gland, heart, lung, esophagus, liver, stomach, small intestine, large intestine, kidney, adrenal gland, pancreas, spleen, and testes) and the blood were collected from each mouse, and the radioactivity and weight of each sample were measured using an AccuFlex γ7000 device (Hitachi, Aloka, Japan). Radioactivity counts were normalized by calibration with a standard solution of ^211At. The residence time (hr) was calculated using the trapezoidal method without decay correction.

[3] = biological target: T1, L-type amino acid transporter-1 (LAT1) (Homo sapiens, UniProt Q01650); test: Transport of para-^211At-PA into Xenopus oocytes expressing LAT1 (compared with LAT2); type: cell-based; settings: Xenopus oocytes co-expressing 4F2hc; choline buffer; 5, 15, 45 min
T1 construct: expressed in transfected cells; host or cells: defolliculated Xenopus oocytes injected with polyadenylated cRNA (25 ng/oocyte)
T1 sequence (Q01650 whole entry): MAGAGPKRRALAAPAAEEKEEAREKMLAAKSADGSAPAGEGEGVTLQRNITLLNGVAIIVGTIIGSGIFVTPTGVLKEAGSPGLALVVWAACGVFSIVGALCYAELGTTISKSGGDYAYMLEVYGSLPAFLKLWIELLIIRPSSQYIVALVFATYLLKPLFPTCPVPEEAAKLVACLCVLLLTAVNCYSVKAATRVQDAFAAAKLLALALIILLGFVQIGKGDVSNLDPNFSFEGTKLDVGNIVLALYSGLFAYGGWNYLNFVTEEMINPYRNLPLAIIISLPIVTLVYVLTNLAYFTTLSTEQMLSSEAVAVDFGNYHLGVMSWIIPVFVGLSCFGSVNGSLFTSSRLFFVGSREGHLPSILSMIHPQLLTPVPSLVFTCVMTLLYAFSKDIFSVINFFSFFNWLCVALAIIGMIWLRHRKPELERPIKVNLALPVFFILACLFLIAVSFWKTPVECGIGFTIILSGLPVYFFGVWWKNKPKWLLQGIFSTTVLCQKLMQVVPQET
T1 sequence (P08195 102-630 partner): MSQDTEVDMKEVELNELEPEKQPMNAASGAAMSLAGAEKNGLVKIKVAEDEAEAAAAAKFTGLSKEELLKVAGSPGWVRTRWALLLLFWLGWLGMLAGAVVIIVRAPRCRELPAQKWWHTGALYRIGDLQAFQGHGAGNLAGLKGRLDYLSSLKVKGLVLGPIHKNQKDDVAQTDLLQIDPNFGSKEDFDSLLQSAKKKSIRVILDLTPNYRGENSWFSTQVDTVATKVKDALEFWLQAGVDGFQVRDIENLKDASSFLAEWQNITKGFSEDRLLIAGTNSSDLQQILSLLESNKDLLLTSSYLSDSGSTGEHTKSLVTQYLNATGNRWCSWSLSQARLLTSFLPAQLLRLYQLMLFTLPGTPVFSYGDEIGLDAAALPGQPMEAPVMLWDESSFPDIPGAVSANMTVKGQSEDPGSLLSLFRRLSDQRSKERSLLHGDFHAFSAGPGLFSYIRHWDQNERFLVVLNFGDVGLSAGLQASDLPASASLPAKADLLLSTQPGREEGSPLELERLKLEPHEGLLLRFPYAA
Experimental: Supplementary Figure 1 lists the cDNAs of human transporters used in this study. First, cRNAs were synthesized in vitro from linearized plasmids using the mMessage mMachine Kit, polyadenylated with a Poly (A) Tailing Kit, and purified with a MEGAclear Kit (all kits: ThermoFisher Scientific, Waltham, MA, USA) according to the manufacturer’s protocols. Next, defolliculated Xenopus oocytes were injected with polyadenylated cRNA (25 ng/oocyte) to induce expression. An equimolar amount of 4F2hc cRNA was co-injected to ensure the functional expression of LAT1 and LAT2 [24–26].
Amino acid transport was measured in the oocytes 2–4 days after cRNA injection, as previously described. Briefly, the oocytes were incubated at room temperature with 500 μL of uptake buffer (choline uptake solution: 100 mM (CH3)3N (Cl) CH2CH2OH, 2 mM KCl, 1.8 mM CaCl2.2H2O, 1 mM MgCl2, 5 mM HEPES, pH 7.5) containing ^211At-PA (approximately 10kBq/oocyte). Radioactivity was determined using a gamma counter. Nine to 11 oocytes were used for each transport measurement. Two separate experiments were performed using different batches of oocytes to confirm the reproducibility of the results.

C6 glioma xenograft [4] = test: Planar imaging and tumor dosimetry in C6 glioma-bearing mice; type: in vivo, mouse
Experimental: (§3) All animal experiments were performed in compliance with the guidelines of the Institute of Experimental Animal Sciences. The protocol was approved by the Animal Care and Use Committee of the Osaka University Graduate School of Medicine. Normal ICR, normal C57BL/6, and nude mice (male) were purchased from Japan SLC Inc. (Hamamatsu, Japan). All animals were housed under a 12-h light/12-hr dark cycle, and given free access to food and water. C6 glioma cells (5.0 × 10^6 cells) or GL-261 cells (1.0 × 10^7 cells) were suspended in 100 μL of culture medium and Matrigel (1:1 ratio; BD Biosciences, Franklin Lakes, NJ, USA). Tumor xenograft and allograft models were prepared via the subcutaneous injection of this C6 glioma cell suspension into each immunodeficient nude mouse (n = 12) and the GL-261 cell suspension into each immunocompetent C57BL/6 mouse (n = 12), respectively.
Para-^211At-PA was injected into mice bearing C6 glioma xenografts (n = 9; 15 weeks old; body weight = 23.8 ± 1.2 g) and GL261 allografts (n = 7; 8 weeks old; body weight = 23.6 ± 1.2 g) at 23 and 20–21 days after implantation, respectively. […] The tumor uptake was calculated as the percent injected dose (%ID). […] The tumor sizes (mm^3) were monitored using a caliper, calculated using the following elliptical sphere model equation, and compared between the injected and control groups of mice.

C6 glioma xenograft [5] = test: Treatment effect in C6 glioma xenograft mice; type: in vivo, mouse; settings: for tumor size ratio (relative to the control): 3 weeks post-injection
Experimental: as §3
Para-^211At-PA was injected into mice bearing C6 glioma xenografts (n = 9; 15 weeks old; body weight = 23.8 ± 1.2 g) and GL261 allografts (n = 7; 8 weeks old; body weight = 23.6 ± 1.2 g) at 23 and 20–21 days after implantation, respectively. C6 glioma xenograft mice were divided into four groups according to the injected dose: 1 MBq (n = 3, 1.19 ± 0.05 MBq), 0.5 MBq (n = 3, 0.55 ± 0.02 MBq), 0.1 MBq (n = 3, 0.09 ± 0.03 MBq), and control mice without para-^211At-PA administration (n = 3). GL261 allograft mice were divided into two groups: 1 MBq (n = 7, 1.07 ± 0.07 MBq) and control (n = 5). Planar imaging was performed using a gamma camera system (E-cam, Siemens) at 30 min and 3 hr after para-^211At-PA administration. This system targeted the X-rays emitted from the daughter nuclide, ^211Po (energy window: 79 keV ± 20%) (6). Image analysis was performed using AMIDE software (ver. 1.0.4). The tumor uptake was calculated as the percent injected dose (%ID). The absorbed dose (Gy) in the tumor was estimated according to a previous report with the normalization to the tumor volume in the calculation process. The tumor sizes (mm^3) were monitored using a caliper, calculated using the following elliptical sphere model equation, and compared between the injected and control groups of mice.
V = 4/3*π*a^2*b (V: volume of the tumor (mm^3), a: shorter radius (mm) and b: longer radius (mm))

GL261 allograft = test: Treatment effect in GL261 allograft mice; type: in vivo, mouse
Experimental: as §3
Para-^211At-PA was injected into mice bearing C6 glioma xenografts (n = 9; 15 weeks old; body weight = 23.8 ± 1.2 g) and GL261 allografts (n = 7; 8 weeks old; body weight = 23.6 ± 1.2 g) at 23 and 20–21 days after implantation, respectively. […] The tumor uptake was calculated as the percent injected dose (%ID). […] The tumor sizes (mm^3) were monitored using a caliper, calculated using the following elliptical sphere model equation, and compared between the injected and control groups of mice. […]

[6] = system: intracranial glioblastomas; set-up: method as in PMID 24036694; settings: intravenous treatment; rats with intracranial glioblastomas; cited from earlier work
glioblastoma = system: glioblastoma; set-up: method as in PMID 19269895; settings: patients with glioblastoma after temozolomide therapy; cited from earlier work
[7] = NaI 10 mg/kg i.v. 24 and 3 hr before, 3 hr post-administration

For NC1(C(=O)O)CC2CCC1C2 (stereo not drawn) [BCH, 2-aminobicyclo-(2,2,1)-heptane-2-carboxylic acid], the inhibition at 20000 µM (C6 glioma cells) was 12.2 ± 0.8%, the inhibition at 20000 µM (U-87MG cells) was 27.6 ± 1.1% and the inhibition at 20000 µM (GL261 cells) was 12.6 ± 2%.

In the case of [211AtH] [^211At-astatide], the “reduction of thyroid uptake following pre-administration of iodine” value (thyroid gland) is listed as 80%.

For N[C@@H](Cc1cccc([211At])c1)C(=O)O [meta-^211At-PA], the stability in vials [1] was “remained stable” and the “residence time in major organs (meta- versus para-)” value [2] was “comparable results”.

With N[C@@H](Cc1ccc([211At])cc1)C(=O)O [para-^211At-PA, ^211At-para-astato-L-PA] the “transport into oocytes by LAT1 compared with LAT2” value [3] was “Significantly greater transport”, the stability in vials [1] was “remained stable” and the “accumulation in the heart and spleen with iodine blocking” value [2, 7] was “increased accumulation”. For the same compound, the “decrease in accumulation in the thyroid by iodine blocking” value [2, 7] was 81%, the “residence time in major organs (meta- versus para-)” value [2] was “comparable results” and the “tumor uptake (planar imaging)” value (C6 glioma xenograft [4]; 30 min post-injection) was 3.7 ± 0.8 %ID. For the same compound, the “tumor uptake (planar imaging)” value (C6 glioma xenograft [4]; 3 hr post-injection) was 1.5 ± 0.2 %ID, the “tumor size ratio (relative to the control)” value (C6 glioma xenograft [5]; 0.1 MBq) was 0.60 and the “tumor size ratio (relative to the control)” value (C6 glioma xenograft [5]; 0.5 MBq) was 0.40. The “tumor size ratio (relative to the control)” value (C6 glioma xenograft [5]; 1 MBq) was 0.25, the “changes in body weights versus control mice” value (C6 glioma xenograft [5]; C6 glioma xenograft model) was “No significant differences” and the relative tumor size (GL261 allograft; 1 MBq, day 32) was 0.24. For the same compound, the “changes in body weights versus control mice” value (GL261 allograft; GL261 allograft model) was “No significant differences” and the “health conditions and survival durations” value [6] was “improved the health conditions and enhanced the survival durations”.

For Cn1nnc2c(C(N)=O)ncn2c1=O [temozolomide], the “5-year overall survival rate” value (glioblastoma) is listed as 9.8%.
